Source: patent US10004718B2, “Erythropoietin expression promoter” (TOHOKU UNIVERSITY, priority 2012, dated 2018)

Assays:
HIF-α = HIF-α concentration in Hep3B cells (Total HIF-1α Cell-Based ELISA); set-up: species or system human; details: compound 10 μM, 20% O2, 24 hours
Method: The Hep3B cells were seeded at 1×10^4 cells/well to a 24-well cell culture plate and then cultured under normal oxygen (20% O2) for 24 hours. Each of 3 types of compounds (compounds #4, 21, and 35) was mixed at a concentration of 10 μM into RPMI1640 common medium 1. After further culture under normal oxygen (20% O2) for 24 hours, the concentration of HIF-α produced in the medium was measured using Total HIF-1 α Cell-Based ELISA Kit (manufactured by R&D Systems, Inc.). Hep3B cells cultured in the absence of the compound (DMSO added [1%]) (“Control” of FIG. 5) were used as a negative control. Hep3B cells cultured in the presence of HIF activators (FG-4592 [10 μM], DMOG [10 μM], and ciclopirox[10 μM]) (“FG”, “DMOG”, and “Ciclo”, respectively, of FIG. 5) were used as positive controls.

Leigh cells = assay: Cell death caused by oxidative stress (BSO) in Leigh syndrome patient fibroblasts; type: cell-based, human; details: compound 10 μM, 4 days after BSO treatment
Method: In Examples 2 to 7 and Reference Example 1 below, an erythropoietin-producing human hepatocellular carcinoma cell Hep3B (obtained from ATCC [American Type Culture Collection]) was cultured and maintained under conditions of 5% CO2/20% O2 and 37° C. in an RPMI1640 (manufactured by Life Technologies, Inc./GIBCO) medium containing 100 U/mL penicillin (manufactured by Life Technologies, Inc./GIBCO), 100 μg/mL streptomycin (manufactured by Life Technologies, Inc./GIBCO), and 10% fetal bovine serum (FBS) (manufactured by Life Technologies, Inc./GIBCO) (hereinafter, referred to as “RPMI1640 common medium 1”). In Example 15 below, Leigh syndrome patients were subjected to skin biopsy to obtain skin fibroblast cells, which were then primarily cultured under conditions of 5% CO2/20% O2 and 37° C. in a DMEM low glucose (manufactured by Life Technologies, Inc./GIBCO) medium containing 100 U/mL penicillin (manufactured by Life Technologies, Inc./GIBCO), 100 μg/mL streptomycin (manufactured by Life Technologies, Inc./GIBCO), and 1% FBS (manufactured by Life Technologies, Inc./GIBCO) (hereinafter, referred to as “DMEM low glucose common medium”) to isolate cells (Leigh cells). In Example 13 below, a human kidney-derived cell line HK-2 (obtained from ATCC) was cultured and maintained under conditions of 5% CO2/20% O2 and 37° C. in a DMEM/F12 (manufactured by Life Technologies, Inc./GIBCO) medium containing 100 U/mL penicillin (manufactured by Life Technologies, Inc./GIBCO), 100 μg/mL streptomycin (manufactured by Life Technologies, Inc./GIBCO), and 10% fetal bovine serum (manufactured by Life Technologies, Inc./GIBCO) (hereinafter, referred to as “DMEM/F12 common medium”). In Example 14 below, a rat islet of Langerhans-derived cell line ISN-1e (kindly provided by Hisamitsu Ishihara, Nihon University School of Medicine) was cultured and maintained under conditions of 5% CO2/20% O2 and 37° C. in an RPMI1640 (manufactured by Life Technologies, Inc./GIBCO) medium containing 10 mM HEPES (manufactured by Sigma-Aldrich Corp.), 2 mM glutamine (manufactured by Sigma-Aldrich Corp.), 50 μM β-mercaptoethanol (manufactured by Sigma-Aldrich Corp.), 100 U/mL penicillin (manufactured by Life Technologies, Inc./GIBCO), 100 μg/mL streptomycin (manufactured by Life Technologies, Inc./GIBCO), and 10% FBS (manufactured by Life Technologies, Inc./GIBCO) (hereinafter, referred to as “RPMI1640 common medium 2”).
The Leigh cells were seeded at 4×10^4 cells/well to a 24-well cell culture plate and then cultured for 24 hours. The glutathione synthesis inhibitor BSO (L-buthionine sulphoximine) (manufactured by Sigma-Aldrich Corp.) was mixed at […] into a medium. After culture for 24 hours in the presence of BSO, each of 5 types of compounds (compounds #2, 4, 5, 21, and 35) was mixed at 10 μM into the medium. After culture for 4 days in the presence of these 5 types of compounds, the number of live cells was measured using Cell Counting Kit-8 (manufactured by Dojindo Laboratories) to calculate the survival rate of the cells (“BSO+#2”, “BSO+#4”, “BSO+#5”, “BSO+#21”, and “BSO+#35” of FIG. 17). […]

erythropoietin = assay: Erythropoietin production in vivo in mice, oral administration for 7 days; set-up: species or system mouse; details: 7 consecutive days, plasma 24 hours after final administration, vs corn oil, DMSO+corn oil or no administration
Method: A mixed solution (200 μl) of each of 4 types of compounds (compounds #4, 5, 21, and 35) (10 mg/100 μl of DMSO) (10 μl) and corn oil (190 μl) was prepared. This mixed solution (200 μl) was orally administered to each mouse (C57BL/6N 8 W, male, 21-25 g) between 15:00 to 18:00 every day using a sonde. This administration was carried out for 7 consecutive days. Mice orally given corn oil or DMSO and corn oil as well as non-administered mice were used as controls.
24 hours after the final administration, each mouse was cervically dislocated, and 500 μl of blood was collected from the heart. Then, an anticoagulant (10 μl of heparin) was added thereto, and the resulting blood was centrifuged (12000 rpm×20 min, 4° C.) to isolate plasma. The plasma concentration […] of erythropoietin was measured using a kit (Quantikine Mouse/Rat Epo Immunoassay, manufactured by R&D Systems, Inc.).

[1] = system: MCA (middle cerebral artery) occlusion mouse models; assay: Cerebral ischemic injury, MCA occlusion mouse model (TTC staining); type: in vivo; details: 40 mg/kg intraperitoneal 4 hours before ischemia, 24 hours after reperfusion, vs DMSO, n=1
Method: Two types of compounds (compounds #4 and 35) (40 mg/kg of mouse body weight) were each intraperitoneally administered to a mouse 4 hours before ischemia (n=1). A vehicle (DMSO) was administered to a control (n=1). Anesthesia was induced in each mouse with 4% halothane and oxygen and maintained by the intraperitoneal administration of ketamine (40 mg/kg) and xylazine (4 mg/kg) at 30-minute intervals. After the induction of systemic anesthesia, bifurcation of the common carotid artery was exposed under a microscope. A 6-0 nylon thread having a silicon-coated tip was inserted from the internal carotid artery toward the central side so that its tip reached the anterior communicating artery. The common carotid artery was further ligated to block blood flow into the middle cerebral artery. After the ischemic burden for 30 minutes, the nylon thread was removed so that the ligated common carotid artery was released to induce reperfusion.
24 hours after the reperfusion, each mouse was cervically dislocated and then decapitated to excise the brain. Five coronal sections of the cerebrum having a thickness of 2 mm were prepared from the boundary between the cerebrum and the cerebellum. The coronal sections of the cerebrum were stained with TCC through a reaction at 37° C. for 20 minutes with a TTC solution diluted to 1.5% with PBS. […]

COc1cc(COc2ccc3[nH]cc(CC(=O)O)c3c2)cc(OC)c1 [compound #35, 5-(3,5-Dimethoxybenzyloxy)-3-indoleacetic acid]
HIF-α concentration in the Hep3B cells (HIF-α): increase the HIF-α concentration | cell death of the Leigh cells by BSO (Leigh cells): efficiently suppress the cell death | amount of erythropoietin in the mouse blood (erythropoietin): increased | volume of the cerebral infarction site [1]: decreased
